What all share (assay type): cell-based
One test relates to HT-29. Kind of test: Viability assay with HT-29. The note with it: HT-29, viability assay per Example 57. As to the method: (§1) NCI-H460 (Epithelial lung tissue; carcinoma; large cell lung cancer) were cultured in RPMI Medium 1640 (Invitrogen-22400105) supplemented with 10% fetal bovine serum (FBS; Invitrogen-10099141). All the cell lines were maintained in a humidified incubator at 37° C. with 5% CO2. Cell culture media and supplements were purchased from Invitrogen, and tissue culture flasks were purchased from Corning, 96-well plates were purchased from Greiner. CellTiter-Glo Luminescent Cell Viability Assay kits were purchased from Promega (Promega-G7573), cells counter Vi-Cell was purchased from Beckman, D300e digital dispenser was purchased from Tecan, detection instrument Envision was purchased from PerkinElmer.
(§2) Paclitaxel was purchased from SELLECK, test compounds, such as any one of the compounds disclosed herein, attained solubility in DMSO and when diluted into culture media. DMSO, solutions containing the test compounds, and culture media were warmed to 37° C. or room temperature for the solution preparation and dilutions.
(§3) NCI-H460 Cell line were seeded in 96-well plates (1200/well) and allowed to adhere to overnight (100 uL/well), for drug treatments with 2 fold dilution, 9 dose points, triplicates or vehicle control, compound stock solutions were prepared in DMSO and use D300e digital dispenser to add compounds to the wells to give the indicated final drug concentrations. Final DMSO concentration was 0.5%. Cellular ATP concentrations were assessed by using the CellTiter-Glo Cell Viability Assay as per the manufacturer's instructions 72 h after compounds addition. Additional cells lines were assayed with any one of the compounds disclosed herein according to the procedures described for the viability assay with NCI-H460.
A viability assay with HT-29 (Colorectal adenocarcinoma) was performed with compounds listed in Table 18 according to the procedures described in Example 57.

The next test relates to MIA PaCa-2. Put plainly: Viability assay with MIA PaCa-2. The note with it: MIA PaCa-2, viability assay per Example 57. As to the method: as §1, §2, §3
A viability assay with MIA PaCa-2 (Epithelial pancreas tissue; carcinoma) was performed with compounds listed in Table 15, according to the procedures described in Example 57.

In a further test the test system is NCI-H460. Put plainly: Viability assay with NCI-H460 (CellTiter-Glo cytotoxicity assay, 72 h). The note with it: NCI-H460 cell line, 72 h after compounds addition. The procedure: as §1, §2, §3
A general note: Cellular ATP, detected with luciferase, serves as a proxy for viable cell number.

The structures appear in SMILES notation. Counter-ions that a name gives are not always drawn.

As to `COc1cnc(-c2cn(CCCN)c3ccc(CN4CCN(Cc5ccccc5Cl)CC4)cc23)nc1` [C204; HCl], the EC50 with HT-29, in the test with MIA PaCa-2 and in the test on NCI-H460 was not above 5 µM in each case.
Turning to `COc1cccc(C(C)(C)N2CCN(Cc3ccc4c(c3)c(-c3ccc(OC(F)(F)F)cc3CN)cn4CCCN)CC2)c1` [C283; HCl], the EC50 with HT-29, with MIA PaCa-2 and with NCI-H460 was not above 5 µM each time.
Consider `COc1ccc(-c2cn(C(C)(C)CCN)c3ccc(CN4CCN(Cc5ccccc5Cl)CC4)cc23)cc1` [C206; HCl], for which the EC50 in the test on HT-29, in the test on MIA PaCa-2 and in the test with NCI-H460 was not above 5 µM in each case.
Consider `CCC1CCN(Cc2ccc3c(c2)c(-c2ccc(OC(F)(F)F)cc2)cn3CCCN)CC1` [C226; HCl], for which the 50% effective concentration (EC50) in the test on HT-29, with MIA PaCa-2 and in the test with NCI-H460 was not above 5 µM throughout.
As for `NCCCn1cc(-c2ccc(OC(F)(F)F)cc2CN)c2cc(CN3CCN(Cc4cccc(OC(F)(F)F)c4)CC3)ccc21` [C267; HCl], the EC50 in the test with HT-29, in the test on MIA PaCa-2 and with NCI-H460 was not above 5 µM in each case.
Take `COc1cc(CN2CCN(S(=O)(=O)c3ccc4c(c3)c(-c3ccc(OC(F)(F)F)cc3CN)cn4CCCN)CC2)cc(OC)c1` [C240; Formic Acid]: the EC50 with HT-29, with MIA PaCa-2 and with NCI-H460 was not above 5 µM in each case.
On to `NCc1ccc(-n2cc(-c3ccc(OC(F)(F)F)cc3)c3cc(CN4CCN(Cc5ccccc5Cl)CC4)ccc32)cc1` [C149; Formic Acid], for which the EC50 with HT-29, with MIA PaCa-2 and in the test on NCI-H460 was not above 5 µM throughout.
As for `NCCCn1cc(-c2ccc(OC(F)(F)F)cc2CN)c2cc(CN3CCOCC3)ccc21` [C265; HCl], the EC50 in the test on HT-29, in the test on MIA PaCa-2 and in the test on NCI-H460 was not above 5 µM throughout.
On to `NCc1cc(OC(F)(F)F)ccc1-c1cn(CCCNC(=O)C2(N)CCNCC2)c2ccc(CN3CCN(Cc4ccccc4Cl)CC3)cc12` [C264; HCl], for which the EC50 in the test with HT-29, with MIA PaCa-2 and in the test with NCI-H460 was 5 to 10 µM in each case.
Turning to `NCCCn1cc(-c2ccc(OC(F)(F)F)cc2)c2cc(CN3CCC(CC(F)(F)F)CC3)ccc21` [C130; HCl], the EC50 with HT-29, in the test on MIA PaCa-2 and in the test on NCI-H460 was not above 5 µM each time.
As for `NCCCn1cc(-c2cccc(CO)c2)c2cc(CN3CCN(Cc4ccccc4Cl)CC3)ccc21` [C152; HCl], the EC50 in the test on HT-29, with MIA PaCa-2 and with NCI-H460 was not above 5 µM each time.
For `NCCCn1cc(-c2ccc(OC(F)(F)F)cc2CN)c2cc(CN3CCC(Nc4ccccc4Cl)CC3)ccc21` [C241; HCl], the EC50 in the test with HT-29, in the test with MIA PaCa-2 and with NCI-H460 was not above 5 µM in each case.
Turning to `NCCCn1cc(-c2ccc(OC(F)(F)F)cc2)c2c(CN3CCN(CCc4ccccc4Cl)CC3)cccc21` [C147; HCl], the EC50 with HT-29, in the test with MIA PaCa-2 and with NCI-H460 was not above 5 µM each time.
Regarding `NCCCn1cc(-c2ccc(CO)cc2)c2cc(CN3CCN(Cc4ccccc4Cl)CC3)ccc21` [C142; Formic Acid], the concentration giving a half-maximal response (EC50) was 5 to 10 µM with HT-29, 5 to 10 µM in the test on MIA PaCa-2 and not above 5 µM with NCI-H460.
Consider `Cc1ccc(-c2cn(CCCN)c3ccc(CC4CCN(Cc5ccccc5Cl)CC4)cc23)c(CN)c1` [C269; Formic Acid], for which the EC50 in the test on HT-29, in the test with MIA PaCa-2 and in the test with NCI-H460 was not above 5 µM in each case.
With `COc1cc(NC2CCN(Cc3ccc4c(c3)c(-c3ccc(OC(F)(F)F)cc3CN)cn4CCCN)CC2)cc(OC)c1` [C278; HCl], the EC50 in the test on HT-29, in the test with MIA PaCa-2 and in the test with NCI-H460 was not above 5 µM in each case.
Turning to `NCc1cc(OC(F)(F)F)ccc1-c1cn(CC2CCNCC2)c2ccc(CN3CCN(Cc4ccccc4Cl)CC3)cc12` [C237; HCl], the EC50 in the test on HT-29, in the test on MIA PaCa-2 and with NCI-H460 was not above 5 µM in each case.
`COc1cccc(CN2CCN(Cc3ccc4c(c3)c(-c3ccc(OC(F)(F)F)cc3CN)cn4C3CCNCC3)CC2)c1` [C274; HCl]: the EC50 in the test on HT-29, in the test with MIA PaCa-2 and in the test with NCI-H460 was not above 5 µM each time.
In the case of `NCCCn1cc(-c2ccc(OC(F)(F)F)cc2CN)c2cc(CN3CCC(Nc4cccc(Cl)c4)CC3)ccc21` [C247; HCl], the EC50 with HT-29, with MIA PaCa-2 and in the test on NCI-H460 was not above 5 µM each time.
In turn, `NCCCn1cc(-c2ccccc2CCN)c2cc(CN3CCN(Cc4ccccc4Cl)CC3)ccc21` [C131; HCl] showed an EC50 with HT-29 not above 5 µM.
On to `NCC(N)C(=O)NCCCn1cc(-c2ccc(OC(F)(F)F)cc2)c2cc(CN3CCN(Cc4c(Cl)cccc4Cl)CC3)ccc21` (stereo not drawn) [C81; HCl], for which the EC50 in the test on MIA PaCa-2 and in the test with NCI-H460 was not above 5 µM throughout.
For the molecule `NC1(C(=O)NCCCn2cc(-c3ccc(OC(F)(F)F)cc3)c3cc(CN4CCN(Cc5ccccc5OC(F)(F)F)CC4)ccc32)CCNCC1` [C58; Formic acid], the concentration giving a half-maximal response (EC50) in the test on MIA PaCa-2 and in the test on NCI-H460 was not above 5 µM each time.
For `NC1(C(=O)NCCCc2cn(-c3ccc(OC(F)(F)F)cc3)c3cc(CN4CCN(Cc5c(Cl)cccc5Cl)CC4)ccc23)CCNCC1` [C75; HCl], the EC50 with MIA PaCa-2 and in the test on NCI-H460 was not above 5 µM each time.
`CC(C)(C)OC(=O)N1CCC(N)(C(=O)NCCCn2cc(-c3ccc(OC(F)(F)F)cc3)c3cc(CN4CCN(Cc5c(Cl)cccc5Cl)CC4)cnc32)CC1` [C175; Formic Acid]: the EC50 is 5 to 10 µM with MIA PaCa-2 and not above 5 µM with NCI-H460.
In the same order, the values of `NCCCn1cc(-c2ccccc2CCN)c2cc(CN3CCN(Cc4ccccc4Cl)CC3)ccc21` [C131, HCl] are not above 5 µM and not above 5 µM.
Consider `NC1(C(=O)NCCCn2cc(-c3ccc(OC(F)(F)F)cc3)c3cc(CN4CCN(Cc5ccccc5)CC4)ccc32)CCNCC1` [C72; HCl], for which the EC50 in the test on MIA PaCa-2 and in the test on NCI-H460 was not above 5 µM each time.
As to `CC(C)(C)OC(=O)NCCCc1cn(-c2ccc(OC(F)(F)F)cc2)c2cc(CN3CCN(Cc4c(Cl)cccc4Cl)CC3)ccc12` [C88; Formic acid], the EC50 with MIA PaCa-2 and in the test on NCI-H460 was more than 30 µM each time.
With `NC1(C(=O)NCCCn2cc(-c3ccc(OC(F)(F)F)cc3)c3cc(CN4CC5CC4CN5Cc4c(Cl)cccc4Cl)ccc32)CCNCC1` (stereo not drawn) [C77; HCl], the EC50 with MIA PaCa-2 and in the test with NCI-H460 was not above 5 µM throughout.
Consider `NC1(C(=O)NCCCn2cc(-c3ccc(OC(F)(F)F)cc3)c3cc(CN4CC5CCC(C4)N5Cc4c(Cl)cccc4Cl)ccc32)CCNCC1` [C86; Formic acid], for which the EC50 with MIA PaCa-2 and in the test with NCI-H460 was not above 5 µM in each case.
Consider `NC1(C(=O)NCCCn2cc(-c3ccc(OC(F)(F)F)cc3)c3cc(CN4CCC5(CCN(Cc6c(Cl)cccc6Cl)CC5)C4)ccc32)CCNCC1` [C61; HCl], for which the EC50 in the test on MIA PaCa-2 and in the test with NCI-H460 was not above 5 µM each time.
As to `CC(C)(C)OC(=O)N1CCC(N)(C(=O)NCCCc2cn(-c3ccc(OC(F)(F)F)cc3)c3cc(CN4CCN(Cc5c(Cl)cccc5Cl)CC4)ccc23)CC1` [C73; Formic acid], the EC50 in the test on MIA PaCa-2 and with NCI-H460 was not above 5 µM each time.
As to `O=C(NCCCc1cn(-c2ccc(OC(F)(F)F)cc2)c2cc(CN3CCN(Cc4c(Cl)cccc4Cl)CC3)ccc12)C1CNCCN1` (stereo not drawn) [C74; HCl], the EC50 in the test with MIA PaCa-2 and with NCI-H460 was not above 5 µM each time.
With `NCCCn1cc(-c2ccc(OC(F)(F)F)cc2CN)c2cc(CN3CCN(Cc4cccc5c4OCO5)CC3)ccc21` [C304; HCl], the EC50 in the test on MIA PaCa-2 and in the test with NCI-H460 was not above 5 µM each time.

The term EC50 denotes the concentration that produces a half-maximal response. Read a high EC50 as weaker potency.
